We go through one compound from patent US10675267B2, “Methods for detection and eradication of myeloid leukemia stem cells” (priority 2015, dated 2020).

Entries after “also recorded” stand apart in the source; their conditions may differ.

Series [1] deals with AML LSC (CD34+ cells from AML primary samples). Kind of series: SL/M2 stromal co-culture with colony formation (survival) and replating (self-renewal) assays, AML. The settings on record: two weeks SL/M2 co-culture, 0.1-10 μM, versus DMSO. Format: cell-based, human. As for the experimental part:
(§1) In hypothesis-driven experiments, the splicing modulatory compound 17S-FD-895 was tested to determine efficacy in altering splicing activity in cell lines, and to evaluate effects on AML LSC survival and self-renewal capacity in humanized bone marrow stromal co-cultures and in PRIMAGRAFT™ AML LSC models. Cell culture experiments were performed using 293T and sAML (MOLM-13) cell lines, and SL and M2 bone marrow stromal cell lines. Animal studies were performed using immunocompromised Rag2−/−γc−/−[20] or NOD/SCID-IL2RG mice (Jackson Laboratory, Bar Harbor, Me.). Primary AML and normal control samples were used in in vitro hematopoietic stem and progenitor assays after bone marrow stromal co-culture and treatment with splicing modulatory compounds (FD-895 or 17S-FD-895) or vehicle control (DMSO). Colony formation potential and self-renewal capacity were assessed by counting colony numbers (survival) after two weeks of growth in semi-solid (methylcellulose) media, and subsequent replating capacity (self-renewal) was assessed after transfer to fresh methylcellulose for an additional two weeks of culture. Three primary AML samples were utilized to establish PRIMAGRAFT™ models in immunocompromised mice, and mice engrafted with cells from two of these models (AML-37 and AML-08) were treated with 17S-FD-895 or vehicle (DMSO) to evaluate changes in AML LSC survival and self-renewal capacity in vivo. Data were collected by flow cytometry and qRT-PCR analysis of CD34-selected human LSC-enriched cells from engrafted mice.
(§2) Bone marrow SL/M2 monolayers were established from freshly inactivated (irradiated) cells and then human CD34^+ cells selected from AML primary samples (n=8) and normal controls (CD34^+ cells from cord blood, CB, n=6; or aged bone marrow, n=6) were added. Survival and self-renewal of the CD34+ cells were investigated by methylcellulose-based colony and replating assays. Two SF3B1-targeted splicing modulators, FD-895 or 17S-FD-895, were added at the initiation of co-culture at concentrations ranging from 0.1 to 10 μM.
Mouse bone marrow stromal cell lines (SL and M2 mycoplasma-free authenticated cells obtained from ATCC) expressing human interleukin-3 (IL-3), stem cell factor (SCF) and granulocyte-colony stimulating factor (G-CSF), which support erythroid and myeloid cell expansion and differentiation, were maintained under standard culture conditions, as previously described. Briefly, SL cells were grown in complete medium containing DMEM (Corning), 10% FBS, 1% Glutamax, and 1% penicillin-streptomycin (Life Technologies), while M2 cells were grown in complete medium containing RPMI, 10% FBS, 1% Glutamax, and 1% penicillin-streptomycin (all from Life Technologies). Every four passages, cells were selected by addition of G418 and hygromycin to the culture media for one passage (3-4 days), to maintain human cytokine expression. All cell lines were maintained in T-25 or T-75 culture flasks and were passaged at dilutions of 1:5-1:10 every 2-4 days. Low passage aliquots of cells were thawed every two months to ensure consistency of experiments.
(§3) As previously described (Goff et al., 2013), humanized bone marrow SL/M2 monolayers were inactivated (irradiated) and then human CD34^+ cells selected from AML primary samples and normal controls were added for two weeks of co-culture, followed by methylcellulose-based colony and replating assays. FD-895 or 17S-FD-895 were added at the initiation of co-culture, with DMSO as a vehicle control.
Mouse bone marrow stromal cell lines (SL and M2 mycoplasma-free authenticated cells obtained from ATCC) expressing human interleukin-3 (IL-3), stem cell factor (SCF) and granulocyte-colony stimulating factor (G-CSF), which support erythroid and myeloid cell expansion and differentiation (Hogge et al., 1996), were maintained under standard culture conditions, as previously described (Goff et al., 2013). […]

Series [2] concerns CD34+ cells from normal aged bone marrow. The experiment in a line: SL/M2 stromal co-culture with colony and replating assays, normal bone marrow. The format is cell-based, human. The settings on record: normal aged bone marrow samples. As for the experimental part: as §1, §2, §3

Consider `CCC(OC)C(C)C1OC1C(O)C(C)/C=C/C=C(\C)C1OC(=O)CC(O)CCC(C)(O)C(OC(C)=O)/C=C/C1C` (stereo not shown) [FD-895, reference compound], for which, in series [1], the “AML LSC self-renewal (colony replating)” value was “dose-dependent reduction; also recorded: reduced AML LSC self-renewal” and the “AML LSC survival (colony formation)” value was “dose-dependent reduction; also recorded: reduced AML LSC survival”. Moreover, in series [2], the “erythroid colony formation and self-renewal” value is “not significantly changed; also recorded: no effect on erythroid colonies”; the “granulocyte-macrophage (myeloid) colony survival” value is given as “slight decrease; also recorded: reduces myeloid colony formation”.
